Experimental data as given in PMC11882969 (Nature Communications, 2025).
Where “and” joins values, the source holds several entries; their conditions need not be identical. Identical values can stand only once. Like-named read-outs stand apart in the source and are kept apart here.

How the values were obtained:
P-gp (human MDR1) = experiment: in vitro; conditions: dog, MDCK-MDR1, pH 7.4
CB1R = experiment: Bimane fluorescence of labeled CB1R; assay type: biochemical, human; conditions: 10 μM ligand; apo 459 nm
Description: A minimal cysteine version of CB1R was generated[85] where all the cysteine residues (except C256 and C264) were mutated to alanine. […] Excess label was removed using size exclusion chromatography on a Superdex 200 10/300 Increase column in 20 mM HEPES pH 7.5, 100 mM NaCl and 0.01% MNG/0.001% CHS. Bimane-labeled CB1R at […] was incubated with ligands (10 μM) for one hour at room temperature. Fluorescence data was collected at room temperature in a 150 μL cuvette with a FluorEssence v3.8 software on a Fluorolog instrument (Horiba) in photon-counting mode. Bimane fluorescence was measured by excitation at 370 nm with excitation and emission bandwidth passes of 4 nm. The emission spectra were recorded from 410 to 510 nm with 1 nm increment and 0.1 s integration time.

[1] = biological target: T1, CB1R with G protein (Gi1-3, Go) (Homo sapiens, UniProt P21554); experiment: GTP turnover assay (GTPase-Glo); assay type: biochemical; conditions: replicates, sheet FigS3c
T1 construct: a N-terminal FLAG tag and C-terminal histidine tag was added to human full-length CB1; FLAG (N); histidine tag (C); made in house; host or cells: CB1R: Spodoptera frugiperda Sf9; G proteins: Trichoplusia ni Hi5
Description: Analysis of GTP turnover was performed by using a modified protocol of the GTPase-Glo^TM assay (Promega) described previously. Ligand-bound (10 μM ligand incubated for one hour at room temperature) or apo CB1R (1 μM) was mixed with G protein (1 μM) in 20 mM HEPES, pH 7.5, 50 mM NaCl, 0.01% L-MNG/0.001% CHS, 100 μM TCEP, 10 μM GDP and 10 μM GTP and incubated at room temperature. GTPase-Glo-reagent was added to the sample after incubation for 60 min (Gi1-3) and 20 min for (Go). Luminescence was measured after the addition of detection reagent and incubation for 10 min at room temperature using a SpectraMax Paradigm plate reader.

[2] = pH 7.4, kinetic, 2% DMSO, 25 °C
in vitro [3] = conditions: mouse, microsomes, pH 7.4
[4] = for Stability time course, Mean (FS10f): relative to 100 at 0 min
[5] = mouse plasma, 1.0 µM
in vitro [6] = conditions: mouse, pH 7.4

T1 sequence (P21554 whole entry): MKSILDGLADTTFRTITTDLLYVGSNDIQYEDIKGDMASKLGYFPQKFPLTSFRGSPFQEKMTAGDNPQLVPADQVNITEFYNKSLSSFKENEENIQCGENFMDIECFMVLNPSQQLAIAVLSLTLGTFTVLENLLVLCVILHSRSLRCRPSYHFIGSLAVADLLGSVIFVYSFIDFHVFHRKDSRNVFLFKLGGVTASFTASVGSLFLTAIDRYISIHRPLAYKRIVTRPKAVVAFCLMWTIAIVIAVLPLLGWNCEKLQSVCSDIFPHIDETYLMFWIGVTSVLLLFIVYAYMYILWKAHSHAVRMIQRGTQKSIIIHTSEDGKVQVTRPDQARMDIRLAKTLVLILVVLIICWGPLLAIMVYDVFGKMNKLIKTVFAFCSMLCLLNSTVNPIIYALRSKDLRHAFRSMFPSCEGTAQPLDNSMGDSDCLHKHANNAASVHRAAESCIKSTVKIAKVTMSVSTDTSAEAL

C[C@H]1O[C@@H](O[C@H]2[C@@H](O)C[C@H](O[C@H]3[C@@H](O)C[C@H](O[C@H]4CC[C@@]5(C)[C@H](CC[C@@H]6[C@@H]5C[C@@H](O)[C@]5(C)[C@@H](C7=CC(=O)OC7)CC[C@]65O)C4)O[C@@H]3C)O[C@@H]2C)C[C@H](O)[C@@H]1O [Digoxin]
efflux ratio at 90 min, 10 μM (P-gp (human MDR1)): 7.3

COC(=O)[C@@H](NC(=O)c1nn(Cc2ccc(F)cc2)c2ccccc12)C(C)(C)C [MDMB-Fub, MDMB-Fubinaca, reference compound]
bimane spectrum λmax (CB1R): 465 nm
GTP turnover, normalised (FUB about 100) ([1]; Gi2): 98.933 and 99.3172 and 100.642 and 101.735 and 100.511 and 98.862
GTP turnover, normalised (FUB about 100) ([1]; Gi3): 98.4729 and 99.2586 and 100.386 and 101.71 and 99.9413 and 100.231
GTP turnover, normalised (FUB about 100) ([1]; Goa): 94.5882 and 101.149 and 98.4211 and 105.861 and 100.202 and 99.77
GTP turnover, normalised (FUB about 100) ([1]; first block, G protein not printed (Gi2, Gi3, Goa follow)): 100.725 and 100.983 and 100.099 and 103.208 and 97.7953 and 97.1894

Cc1nccn1CC1CCc2c(c3ccccc3n2C)C1=O (stereo not shown) [Ondansetron]
PBS solubility, Mean [2]: 120 µM

CC(C)NCC(O)COc1cccc2ccccc12 (stereo not shown) [Propranolol]
remaining at 40 min, 2 µM (in vitro [3]): 106%
Stability time course, Mean (FS10f) ([4]; Time 0 min): 100
Stability time course, Mean (FS10f) ([4]; Time 7 min): 46.9307
Stability time course, Mean (FS10f) ([4]; Time 15 min): 32.0792
Stability time course, Mean (FS10f) ([4]; Time 25 min): 24.5545
Stability time course, Mean (FS10f) ([4]; Time 40 min): 16.6997
Mean % Remaining ([4]; mouse microsomes, 15 min): 32%

COc1ccc(CCN(C)CCCC(C#N)(c2ccc(OC)c(OC)c2)C(C)C)cc1OC (stereo not shown) [Verapamil, reference compound]
Mean % of bound compound [5]: 88%
recovery at 5 h, 1 μM (in vitro [6]): 91%
